Literature values, collected in patent US8177778B2, “System and method for stabilizing corneal tissue after treatment” (Avedro, Inc., priority 2009, dated 2012).

Tested on: corneal wound healing
Details: rabbits after excimer laser PRK ablation, M6P drop vs control drop

O=C[C@@H](O)[C@@H](O)[C@H](O)[C@H](O)COP(=O)(O)O [M6P, Mannose 6-phosphate]
subepithelial collagen: less subepithelial collagen | corneal haze (at 4 weeks): significant reduction in corneal haze
